Assay results from patent US20210253718A1, “FRIZZLED5 PROTEIN-BINDING AGENTS” (Modmab Therapeutics Corporation, priority 2016, published 2021).

Legend:
Assay type in all cases: cell-based, human
PaTu-8988S cells = experiment: Cell viability assay (Alamar Blue) in PDAC cell lines, LGK974 comparator
HPAF-II cells = experiment: Crystal violet staining proliferation (clonogenic growth) assay; conditions: 100 nM LGK974
Protocol: Crystal Violet Staining Proliferation Assay: HPAFII Cas9 cells were transduced with lentivirus generated with the indicated pLCKO plasmid as described above. 24 hours after infection cells were treated with puromycin. After 48 hours of selection, cells were PBS washed extensively, dissociated and counted. 2000 cells per well were re-seeded in 24-well format in media without puromycin. 24 hours post seeding, indicated wells were treated with DMSO control or 100 nM LGK974 (Cayman Chemical #14072) (note that these wells were from the LacZ gRNA population). Medium was renewed every 3-4 days and cells were fixed, 10 days post plating, using 100% ice-cold methanol. After fixation cells were stained with 0.5% crystal violet, 25% methanol solution for 20 minutes at room temperature, after which staining solution was removed and plates were washed several times in dH2O.
To validate the screen results HPAF-II cells were first infected with lentivirus coding for various gRNAs, transduced cells were selected for 48 hours and plated in clonogenic growth assays. […] In contrast, the growth of PANC-1 and BxPC-3 cell lines, which are wild-type for RNF43, was not inhibited by gRNAs targeting FZD5, FZD7 or CTNNB1 (FIG. 4C and FIG. 5).

MUC5AC = experiment: RT-qPCR of differentiation induced gene MUC5AC; conditions: RNF43-mutant PDAC cells
Protocol: Reverse transcription and quantitative real-time PCR: After indicated treatments, cells were lysed in Tri-reagent (BioShop Canada #TSS120) and RNA extracted using the manufacturer's protocol. RNA concentration was quantified with Nanodrop1000 (Thermo Scientific) and 2 micrograms of RNA per sample was DNase I treated (ThermoFisher #AM2222). DNase treated RNA was used to make cDNA with High-Capacity cDNA Reverse Transcription Kit (ThermoFisher #4368813). Real-time PCR was performed using Power SYBR Green Master Mix on the 7900HT Fast Real-Time PCR system. Primer pairs are listed below. Analysis was done using the comparative cycle threshold (CT) method (Bookout et al., 2006) with all samples normalized to PPIB (cyclophilin B) expression. To validate the screen results HPAF-II cells were first infected with lentivirus coding for various gRNAs, transduced cells were selected for 48 hours and plated in clonogenic growth assays. […] In contrast, the growth of PANC-1 and BxPC-3 cell lines, which are wild-type for RNF43, was not inhibited by gRNAs targeting FZD5, FZD7 or CTNNB1 (FIG. 4C and FIG. 5).

ASPC-1 cells = experiment: Cell viability assay (Alamar Blue) in PDAC cell lines, LGK974 comparator

Compound: Cc1cc(-c2ncc(CC(=O)Nc3ccc(-c4cnccn4)cn3)cc2C)ccn1 [LGK974]
- growth (cell viability) (PaTu-8988S cells): inhibited the growth
- growth in clonogenic growth assay (HPAF-II cells): robust growth inhibition
- expression of the differentiation marker MUC5AC (MUC5AC): increased expression
- growth (cell viability) (ASPC-1 cells): inhibited the growth
